Measurements reported in patent publication US7294457B2, “Direct binding assay for identifying inhibitors of HCV polymerase” (priority 2001, dated 2007).
“And” between values parts separate entries of the source, which are not always exact repeats. Equal entries are not always repeated.

Tests used:
[1] = biological target: T1, NS5BΔ21-His polymerase (Hepatitis C virus genotype 1b, UniProt P26663); test: Fluorescence anisotropy titration of probe with NS5BΔ21-His; format: binding, HCV; details: Kd of probe for NS5BΔ21-His
T1 construct: a variant that lacks the C-terminal 21 amino acids normally found on the mature NS5B; hexa-histidine (C); made in house; host or cells: E. coli JM109 (DE3), pET vector
Method: Titration of the probe with the enzyme was performed as follows:
(§1) The fluorescein labeled probe was diluted to the desired concentration in 20 mM Tris-HCl pH 7.5, 1 mM EDTA, 5 mM MgCl2, 1 mM DTT and 10% DMSO. The NS5BΔ21-His protein was serially diluted in 25 mM Tris-HCl pH 7.5, 300 mM NaCl, 5 mM DTT, 1 mM EDTA, 30% glycerol and 0.1% IGEPAL. Total volume of the reaction was 500 μL and final assay buffer was 20 mM Tris-HCl pH 7.5, 1 mM EDTA, 5 mM MgCl2, 1 mM DTT, 30 mM NaCl, 3% glycerol, 0.01% IGEPAL and 5% DMSO. Anisotropy measurements were performed on a SLM Aminco 8100 Spectrofluorometer equipped with a 450-W xenon arc lamp and a T-optics configuration. Excitation wavelength was at 493 nm and emission was monitored at 530 nm. In each anisotropy measurement, the parallel and perpendicular intensities of the background buffer solution was subtracted from the measured values of the sample and the anisotropy was calculated. Data were processed on SAS program (SAS Institute Inc., NC, USA) for a non linear regression to obtain the direct binding equilibrium constant and other parameters, and the plot of the regressed fit over the experimental data. An example of a titration curve obtained with probe (i) is shown on FIG. 1.
The usefulness of this polarization assay is evident when binding of compounds has to be studied under different conditions. For example, binding constants of the probes have been determined at different concentrations of salts and pH. FIGS. 5 to 8 show the binding curves of probe (i) in final NaCl concentrations ranging from 30 mM to 200 mM. […] All other reagents in the assay were as described in the standard protocol (Example 3). […] Studies at pH 6.5 were also performed to determine the Kd of the probe (i) at lower pH. For these assays, 20 mM Phosphate buffer pH 6.5 was used in place of Tris; all other reagents of the assay were as described in the 96-well Polarization assay (Example 4). […] Having established these Kd values under different experimental conditions, it is then trivial to determine what concentrations of probe and enzyme should be used to obtain 70% of binding of the probe with the equilibrium equation. Once these values are obtained, compounds of interest can easily be studied under the new conditions to determine their Kd values.

[2] = biological target: T2, His-NS5BΔ21 polymerase (Hepatitis C virus genotype 1b, UniProt P26663); test: Fluorescence anisotropy/polarization titration of probe with His-NS5BΔ21; format: binding, HCV; details: Kd of probe for N-terminally tagged His-NS5BΔ21, standard conditions
T2 construct: a variant that lacks the C-terminal 21 amino acids normally found on the mature NS5B; hexa-histidine (N); made in house; host or cells: E. coli JM109 (DE3), pET vector
Method: as §1, with “Data were processed on SAS program (SAS Institute Inc., NC, USA) for a non linear regression to obtain the direct binding equilibrium constant and other parameters, and the plot of the regressed fit over the experimental data. An example of a titration curve obtained with probe (i) is shown on FIG. 1.” left out
To obtain Kd values of different compounds competing with these probes (test compounds), this assay was transformed to a more amenable format and a binding assay was made suitable for a 96-well microplate reader. […] The NS5BΔ21-His concentration in the assay was calculated to obtain 70% of binding of the probe; these conditions allowed for the displacement of the probe by test compounds. […]
The Fluorescence polarization assay was also used with other constructs of our HCV polymerase enzyme. […]

[3] = biological target: T3, GBV-BΔ23-His polymerase (Hepatitis GB virus B, UniProt Q69422); test: Fluorescence anisotropy titration of probe with GBV-B polymerase; format: binding
T3 construct: The GBV-B polymerase enzyme (termed GBV-BΔ23-His; 3); His tag (C); made in house; host or cells: E. coli JM109 (DE3), pET vector
Method: as §1, with “An example of a titration curve obtained with probe (i) is shown on FIG. 1.” left out
(§2) The GBV-B and the HCV 1a polymerases were used to titrate probe ii, using the protocol described in Example 3. […] Kd values for a series of compounds were determined with these two HCV (genotypes 1a and 1b) polymerases, using the assay format described in Example 4.

[4] = biological target: T4, His-NS5BΔ21(H77c, HCV genotype 1a) polymerase (Hepatitis C virus genotype 1a, UniProt P27958); test: Fluorescence anisotropy titration of probe with HCV genotype 1a polymerase; format: binding; details: Kd of probe for HCV genotype 1a polymerase, standard conditions of Example 3
T4 construct: The HCV genotype 1a NS5B polymerase [termed His-NS5BΔ21 (H77c, 1a); 4]; His tag (N); made in house; host or cells: E. coli JM109 (DE3), pET vector
Method: as §1, with “data.” for “data. An example of a titration curve obtained with probe (i) is shown on FIG. 1.”
as §2

[5] = standard conditions of Example 3 (Tris-HCl pH 7.5, 30 mM NaCl)

Row | SMILES | Kd ([1]; 20 mM Phosphate buffer pH 6.5 in place of Tris) | Kd ([1]; 30 mM NaCl) | Kd ([1]; 100 mM NaCl) | Kd ([1]; 150 mM NaCl) | Kd ([1]; 200 mM NaCl) | Kd [1, 5] | Kd [2] | Kd ([3]; Kd of probe for GBV-BΔ23-His polymerase, estimated value with an incomplete curve) | Kd with GBV-B polymerase relative to HCV polymerases ([3]; fold higher Kd, specificity) | Kd [4]
1 | O=C(O)COc1ccc2[nH]cc(C[C@H](NC(=O)c3ccc4c(c3)nc(-c3ccc(C(=O)NCCNC(=S)Nc5ccc(-c6c7ccc(=O)cc-7oc7cc(O)ccc67)c(C(=O)O)c5)cc3)n4C3CCCCC3)C(=O)O)c2c1 [probe (i), 5-[3-(2-{[1-(4-{5-[(S)-1-Carboxy-2-(5-carboxymethoxy-1-H-indol-3-yl)-ethylcarbamoyl]-1-cyclohexyl-1H-benzimidazol-2-yl}-phenyl)-methanoyl]-amino}-ethyl)-thioureido]-2-(6-hydroxy-3-oxo-3H-xanthen-9-yl)-benzoic acid] | 33 nM | 15 nM and 15.3 nM | 39 nM | 78 nM | 122 nM | 15 nM and 12.6 nM | 18 nM and 18.1 nM |  |  | 
2 | O=C(O)COc1ccc2[nH]cc(C[C@H](NC(=O)c3ccc4c(c3)nc(-c3ccc(OCC(=O)NCCNC(=S)Nc5ccc(-c6c7ccc(=O)cc-7oc7cc(O)ccc67)c(C(=O)O)c5)cc3)n4C3CCCCC3)C(=O)O)c2c1 [probe (ii), 5-(3-{2-[2-(4-{5-[(S)-1-Carboxy-2-(5-carboxymethoxy-1-H-indol-3-yl)-ethylcarbamoyl]-1-cyclohexyl-1H-benzimidazol-2-yl}-phenoxy)-ethanoylamino]-ethyl}-thioureido)-2-(6-hydroxy-3-oxo-3H-xanthen-9-yl)-benzoic acid] |  |  |  |  |  | 6 nM |  | 1800 nM and 1790 nM | at least 100 fold | 18 nM and 18.2 nM
